What all share (format): cell-based
In one series the test system is IL-6. In words: Secretion of IL-6 by reconstructed human hemi-corneas treated with SDS (membrane ARRAY). The conditions noted are these: culture supernatant after at least 24 hours of reculture following SDS treatment; irritant effect without cell mortality. The protocol:
After treating with SDS, the reconstructed human hemi-corneas are rinsed with culture medium, for example, DMEM, and then recultured for at least a further 24 hours in the culture medium described for the preparation of the reconstructed human hemi-corneas (Example 5).
The culture supernatants of the reconstructed human hemi-corneas are then recovered in order to assay the secreted pro-inflammatory cytokines. The culture supernatants optionally may be frozen before use.
The inventors evaluated the secretion of IL-6, for example by means of a “membrane ARRAY” method as a function of the cell viability previously studied in Example 6.

Series [1] deals with reconstructed human hemi-corneas. In words: Cellular recovery of reconstructed human hemi-corneas treated with SDS, cell viability. Here is the method: After culturing for 7, 14 or 28 days, the reconstructed human corneal stromas are analysed in the following manner: • the cultures are incubated for 2 hours at 37° C. in 2 ml of MTT (methyl thiazolyl tetrazolium) at 1 mg/ml. The negative control corresponds to the biomaterial not containing keratocytes; • the cultures are then recovered, and then incubated in 4 ml of DMSO (dimethyl sulfoxide) for 4 hours with stirring; • a fraction of the culture supernatant (200 μl) of each sample is recovered and then analysed by spectrophotocolorimetry (550 nm). The optical density read is directly proportional to the number of living cells. The biomaterial that has a porosity of between 40 and 50 μm is suitable for the proliferation of keratocytes. Indeed, the cellular proliferation kinetics of the keratocytes is proportional to the culturing time of the reconstructed human corneal stromas. Furthermore, irrespective of the conditions of manufacture of our biomaterial [1.6%, 1.4% and 1.25% dry matter], as described in Example 2, the keratocytes have a similar degree of proliferation.
After treatment with SDS, the reconstructed human hemi-corneas are rinsed with culture medium, for example, DMEM, and then recultured for at least a further 24 hours in the culture medium described for the preparation of the reconstructed human hemi-corneas (Example 5). […]

Series [2] shares this test system. In words: Cell viability (MTT) of reconstructed human hemi-corneas treated with SDS. Conditions: beyond 0.5% SDS, 10 minutes immersion.
Series [3] shares this test system. Description: Cellular recovery of reconstructed human hemi-corneas treated with SDS, histological analysis. Here is the method: The reconstructed human hemi-corneas are treated for 10 minutes by complete immersion, with increasing solutions of SDS (0.5%, 1%, 2% and 3%). After the treatment, the reconstructed human hemi-corneas are rinsed with culture medium, for example DMEM, and then fixed, for example with formaldehyde, and then included in paraffin. Paraffin slices are then prepared by microtome, preferentially at a thickness of 5 μm, and then stained, for example, with haematoxylin, phloxin and saffron. […] At and above 0.5% SDS, a histological effect on the reconstructed human hemi-corneas is observed.
After treatment with SDS, the reconstructed human hemi-corneas are rinsed with culture medium, for example, DMEM, and then recultured for at least a further 24 hours in the culture medium described for the preparation of the reconstructed human hemi-corneas (Example 5). The histological studies are performed as described in Example 5.

Series [4] shares this test system. Description: Histological study of reconstructed human hemi-corneas treated with SDS. Conditions: 10 minutes, complete immersion; 0.5%, 1%, 2%, 3% SDS tested. The protocol:
A cell suspension preferentially containing 2×10^5 corneal epithelial cells/500 μl of culture medium is seeded on the surface of the reconstructed human corneal stroma. The culture medium used is preferentially composed of DMEM/HAM F12 (2/1), 10% foetal calf serum (FCS), EGF (10 ng/ml), insulin (5 μg/ml), adenine (0.18 mM), hydrocortisone (0.4 μg/ml), cholera toxin (0.1 nM), triiodothyronine (2 nM), glutamine (4 mM), ascorbic acid (1 mM), penicillin G (100 IU/ml), gentamicin (20 μg/ml) and amphotericin B (1 μg/ml). The corneal epithelial cells are cultured by immersion for 7 days on the equivalent corneal stroma and with the medium described above.
The cultures are then raised to the air/liquid interface and then cultured for a further 14 days with a culture medium preferentially composed of DMEM, hydrocortisone (0.4 μg/ml), insulin (5 μg/ml), ascorbic acid (1 mM), penicillin G (100 IU/ml), gentamicin (20 μg/ml) and amphotericin B (1 μg/ml).
The reconstructed human hemi-corneas are treated for 10 minutes by complete immersion, with increasing solutions of SDS (0.5%, 1%, 2% and 3%). After the treatment, the reconstructed human hemi-corneas are rinsed with culture medium, for example DMEM, and then fixed, for example with formaldehyde, and then included in paraffin. […]

SMILES strings stand for the structures.

As for `CCCCCCCCCCCCOS(=O)(=O)[O-].[Na+]` [SDS, sodium dodecyl sulfate], the “secretion of IL-6” value with IL-6 is given as “strong secretion of IL-6”. In addition, the “cell viability after recovery (T=48 h) versus after treatment (T=0 h)” value in series [1] (0.5% SDS) is listed as “significantly equivalent”; in series [1] (1%, 2% and 3% SDS), “significantly lower cell viability”. For the same molecule, the cell viability result in series [2] is on record as “less than 75%”. Moreover, the “epithelial organization after cellular recovery (histology)” value is “epithelial organization close to that of untreated hemi-corneas” in series [3] (0.5% and 1% SDS, after 48 hours of cellular recovery); “irreversible epithelial damage” in series [3] (2% and 3% SDS, after recovery). Further, the “SDS concentration at which a histological effect is observed” value in series [4] is given as at least 0.5%.

The record behind these values is US20110066238A1, “RECONSTRUCTED CORNEA AND MUCOUS MEMBRANE” (BASF BEUTY CARE SOLUTIONS FRANCE S.A.S, priority 2008, published 2011).
